Measurements reported in patent US3982931A, “N,N-di-sec.butyl-benzamide herbicides” (priority 1967, dated 1976).

Experiments:
[1] = system: echinocloa crus-galli R.S.; assay: herbicidal activity, soil treatment one day after sowing; type: in vivo
Excerpt: (§1) The infesting species and the agrarian species have been indicated in Table 1 by letters, as follows:
D = echinocloa crus-galli R.S.
(§2) Method of evaluation of the results (of tests):
(§3) 1 slight differences with respect to the control;
(§4) 3 = considerable activity with damages that definitely impair the further development of most of the small plants; an activity degree already useful for practical purposes;
(§5) 4 = maximum of activity with lack of germination or total containment of the small plants in the emerging stage.
(§6) In the case of an intermediate activity between two classes of the scale, both values are recorded with the one which corresponds to the preeminent activity preceding.
(§7) TABLE 2 reports the activity data of other compounds that fall within the class which is the object of this invention.
(§8) TABLE 3 reports data on the herbicidal activity against infesting herbs, while TABLE 4 reports data concerning the activity on useful species of agricultural cultivations. These tables employ the criterion explained previously. […]

chenopodium album L. = assay: as above; type: in vivo
Excerpt: as §1, §2, §3, §4, §5, §6, §7, §8

vicia sativa L. = assay: as above; type: in vivo
Excerpt: as §1, §2, §3, §4, §5, §6, §7

[2] = system: triticum vulgare L. (wheat); assay: activity on agrarian species, soil treatment one day after sowing; type: in vivo; details: in vivo
Excerpt: as §1
N = triticum vulgare L. (wheat)
as §2
(§9) 0 = no activity and no difference with respect to the control;
as §3, §4, §5, §6, §7
(§10) TABLE 3 reports data on the herbicidal activity against infesting herbs, while TABLE 4 reports data concerning the activity on useful species of agricultural cultivations. These tables employ the criterion explained previously. The product was spread on the soil one day after sowing, in quantities of 1, 3, 6, 8, 10, 12 and 14 kg/ha.

oryza sativa L. (rice) = assay: as above; type: in vivo; details: in vivo
Excerpt: as §1
P = oryza sativa L. (rice)
as §2, §9, §3, §4, §5, §6, §7, §10

artemisia vulgaris L. = assay: herbicidal activity, soil treatment one day after sowing; type: in vivo
Excerpt: as §1
B = artemisia vulgaris L.
as §2, §3, §4, §5, §6, §7, §8

[3] = system: amaranthus retroflexus L.; assay: as above; type: in vivo
Excerpt: as §1
A = amaranthus retroflexus L.
as §2, §3, §4, §5, §6, §7, §8

setaria glauca L. = assay: as above; type: in vivo
Excerpt: as §1, §2, §3, §4, §5
In the case of an intermediate activity between two classes of the scale, both values are recorded with the one which corresponds to the preeminent activity preceding. […]
as §8

avena sativa (oats) = assay: activity on agrarian species, soil treatment one day after sowing; type: in vivo, Avena sativa L.; details: in vivo
Excerpt: as §1, §2, §9, §3, §4, §5, §6, §7, §10

[4] = system: phaseolus vulgaris (bean); assay: as above; type: in vivo, Phaseolus vulgaris L.; details: in vivo
Excerpt: as §1
I = phaseolus vulgaris (bean)
as §2, §9, §3, §4, §5, §6, §7, §10

pisum sativum L. (pea) = assay: as above; type: in vivo; details: in vivo
Excerpt: as §1
L = pisum sativum L. (pea)
as §2, §9, §3, §4, §5, §6, §7, §8

zea mais L. (corn) = assay: as above; type: in vivo; details: in vivo
Excerpt: as §1, §2, §9, §3, §4, §5, §6, §7, §10

activity on P, 0-4 scale (oryza sativa L. (rice)) | activity on G, 0-4 scale (avena sativa (oats)) | activity on I, 0-4 scale [4] | activity on L, 0-4 scale (pisum sativum L. (pea)) | activity on O, 0-4 scale (zea mais L. (corn)) | SMILES | activity on D, 0-4 scale ([1]; 6 kg/ha) | activity on C, 0-4 scale (chenopodium album L.; 6 kg/ha) | activity on F, 0-4 scale (vicia sativa L.; 6 kg/ha) | activity on B, 0-4 scale (artemisia vulgaris L.; 6 kg/ha) | activity on A, 0-4 scale ([3]; 6 kg/ha) | activity on E, 0-4 scale (setaria glauca L.; 6 kg/ha) | further results
0-1 | – | – | – | – | NC(=O)c1ccccc1Cl [C, 2,chloro-benzamide, reference compound] | 0-1 | 2 | 2-3 | 1 | 2 | 0 | activity on N, 0-4 scale [2]: 0-1
0 | 0 | 0 | 0 | 0 | CCC(C)N(C(=O)c1ccc(Cl)cc1Cl)C(C)CC (stereo not shown) [PA214, 2,4-dichloro-N,N-di-sec.butyl-benzamide] | 4 | – | 0 | – | 3-4 | 4 | activity on D, 0-4 scale ([1]; 4 kg/ha): 3-4; activity on C, 0-4 scale (chenopodium album L.; 2 kg/ha): 1; activity on C, 0-4 scale (chenopodium album L.; 4 kg/ha): 1-2; activity on F, 0-4 scale (vicia sativa L.; 2 kg/ha): 0; activity on F, 0-4 scale (vicia sativa L.; 4 kg/ha): 0; activity on B, 0-4 scale (artemisia vulgaris L.; 2 kg/ha): 1; activity on B, 0-4 scale (artemisia vulgaris L.; 4 kg/ha): 2; activity on A, 0-4 scale ([3]; 2 kg/ha): 1; activity on A, 0-4 scale ([3]; 4 kg/ha): 2-3; activity on E, 0-4 scale (setaria glauca L.; 2 kg/ha): 3; activity on E, 0-4 scale (setaria glauca L.; 4 kg/ha): 3-4
0 | 0 | 0 | 0 | 0 | CCC(C)N(C(=O)c1ccccc1Cl)C(C)CC (stereo not shown) [PA215 2,chloro-N,N-disec.butyl-benzamide, 2-chloro-N,N-di-sec.butyl-benzamide] | 2-3 | 0-1 | 0 | 1 | 2 | 3 | –
0 | 0 | 0 | – | 0 | CCC(C)N(C(=O)c1cccc(Cl)c1)C(C)CC (stereo not shown) [PA215, 3-chloro-N,N-di-sec.butyl-benzamide] | 3 | 1-2 | 1-2 | 1-2 | 1-2 | 3 | –
0 | 0 | 0 | 0 | 0 | CCC(C)N(C(=O)c1cccc(C)c1)C(C)CC (stereo not shown) [PA226, 3-methyl-N,N-di-sec.butyl-benzamide] | 4 | 1-2 | 0 | 1-2 | 2 | 4 | activity on D, 0-4 scale ([1]; 2 kg/ha): 2-3; activity on D, 0-4 scale ([1]; 4 kg/ha): 3; activity on C, 0-4 scale (chenopodium album L.; 2 kg/ha): 0-1; activity on C, 0-4 scale (chenopodium album L.; 4 kg/ha): 1; activity on F, 0-4 scale (vicia sativa L.; 2 kg/ha): 0; activity on F, 0-4 scale (vicia sativa L.; 4 kg/ha): 0; activity on B, 0-4 scale (artemisia vulgaris L.; 2 kg/ha): 1; activity on B, 0-4 scale (artemisia vulgaris L.; 4 kg/ha): 1-2; activity on A, 0-4 scale ([3]; 4 kg/ha): 1-2; activity on E, 0-4 scale (setaria glauca L.; 2 kg/ha): 2; activity on E, 0-4 scale (setaria glauca L.; 4 kg/ha): 3-4
– | 0 | 0 | 0 | 0 | CCC(C)N(C(=O)c1ccc(C)c(C)c1)C(C)CC (stereo not shown) [PA233, 3,4-dimethyl-N,N-di-sec.butyl-benzamide] | 4 | 2 | 0 | 2 | 2-3 | 4 | activity on D, 0-4 scale ([1]; 2 kg/ha): 2-3; activity on D, 0-4 scale ([1]; 4 kg/ha): 3; activity on E, 0-4 scale (setaria glauca L.; 2 kg/ha): 3; activity on E, 0-4 scale (setaria glauca L.; 4 kg/ha): 3-4
3 | – | – | 1 | – | CCCN(CCC)C(=O)c1cc(Cl)cc(Cl)c1Cl [PA303, 2,3,5-trichloro-N,N-di-n. propyl-benzamide, reference compound] | 4 | – | 0-1 | 1 | 3 | 4 | activity on D, 0-4 scale ([1]; 1 kg/ha): 1-2; activity on D, 0-4 scale ([1]; 4 kg/ha): 3-4; activity on C, 0-4 scale (chenopodium album L.; 1 kg/ha): 1; activity on C, 0-4 scale (chenopodium album L.; 2 kg/ha): 1; activity on C, 0-4 scale (chenopodium album L.; 4 kg/ha): 1-2; activity on F, 0-4 scale (vicia sativa L.; 1 kg/ha): 0; activity on F, 0-4 scale (vicia sativa L.; 2 kg/ha): 0; activity on F, 0-4 scale (vicia sativa L.; 4 kg/ha): 0-1; activity on B, 0-4 scale (artemisia vulgaris L.; 1 kg/ha): 1; activity on B, 0-4 scale (artemisia vulgaris L.; 2 kg/ha): 1; activity on B, 0-4 scale (artemisia vulgaris L.; 4 kg/ha): 1; activity on A, 0-4 scale ([3]; 1 kg/ha): 1; activity on A, 0-4 scale ([3]; 4 kg/ha): 2-3; activity on E, 0-4 scale (setaria glauca L.; 1 kg/ha): 1-2; activity on E, 0-4 scale (setaria glauca L.; 2 kg/ha): 3
0 | 0 | 0 | 0 | 0 | CCC(C)N(C(=O)c1cccc(Cl)c1Cl)C(C)CC (stereo not shown) [PA336, 2,3-dichloro-N,N-di-sec.butyl-benzamide] | 4 | – | 0 | 3 | 4 | 4 | activity on D, 0-4 scale ([1]; 2 kg/ha): 3-4; activity on D, 0-4 scale ([1]; 4 kg/ha): 4; activity on C, 0-4 scale (chenopodium album L.; 2 kg/ha): 2; activity on C, 0-4 scale (chenopodium album L.; 4 kg/ha): 3; activity on F, 0-4 scale (vicia sativa L.; 2 kg/ha): 0; activity on F, 0-4 scale (vicia sativa L.; 4 kg/ha): 0; activity on B, 0-4 scale (artemisia vulgaris L.; 2 kg/ha): 1; activity on B, 0-4 scale (artemisia vulgaris L.; 4 kg/ha): 2; activity on A, 0-4 scale ([3]; 2 kg/ha): 2-3; activity on E, 0-4 scale (setaria glauca L.; 4 kg/ha): 4
– | – | – | – | – | CCC(C)N(C(=O)c1ccc(F)c(Br)c1)C(C)CC (stereo not shown) [PA518, 3-bromo,4-fluoro-N,N-di-sec.butyl-benzamide] | 3-4 | 3 | 0 | 3 | 2 | 4 | –
– | – | – | – | – | CC(C)CN(CC(C)C)C(=O)c1cccc(Br)c1 [PA521, 3-bromo-N,N-di-isobutyl-benzamide, reference compound] | 1-2 | 1 | 0 | 1 | 1 | 1-2 | –
– | – | – | – | – | CCCCN(C(=O)c1cccc(Br)c1)C(C)CC (stereo not shown) [PA525, 3-bromo-N,n.butyl-N-sec.butyl-benzamide] | 3 | 1 | 0 | 0-1 | 1-2 | 3-4 | –
– | – | – | – | – | O=C(O)c1cccc(Br)c1 [PA577, 3,bromo-benzoic acid, reference compound] | 0 | 0 | 0 | 0 | 0 | 0 | –
– | – | – | – | – | CCC(C)N(C(=O)c1ccc(Br)c(I)c1)C(C)CC (stereo not shown) [PA619, 3-iodo,4-bromo-N,N-di-sec.butyl-benzamide] | 3 | 0-1 | 0 | 0 | 0-1 | 3 | –
– | – | – | – | – | CCC(C)N(C(=O)c1cc(Cl)c(Cl)c(Cl)c1)C(C)CC (stereo not shown) [PA621, 3,4,5-trichloro-N,N-di-sec.butyl-benzamide] | 4 | 2 | 0 | 2 | 2 | 4 | –
– | – | – | – | – | CCC(C)N(C(=O)c1cc(Cl)cc(Br)c1)C(C)CC (stereo not shown) [PA626, 3-bromo,5-chloro-N,N-di-sec.butyl-benzamide] | 3-4 | 0-1 | 0 | 0-1 | 1-2 | 4 | –
– | – | – | – | – | CCC(C)N(C(=O)c1c(Cl)cc(Cl)cc1Cl)C(C)CC (stereo not shown) [PA633, 2,4,6-trichloro-N,N-di-sec.butyl-benzamide] | 4 | 2-3 | 0 | 2-3 | 2 | 4 | –
– | – | – | – | – | CCCC(C)N(C(=O)c1ccc(Cl)c(Cl)c1)C(C)CC (stereo not shown) [PA634, 3,4-dichloro-N-sec.amyl,N-sec.butyl-benzamide] | 3 | 1-2 | 0 | 2 | 2 | 3-4 | –
